In patent US20060029668A1, “Sustained release L-arginine formulations and methods of manufacture and use” (priority 2002, published 2006):

Tests used:
infarct volume = experiment: Dose optimization of combination of simvastatin and L-arginine, infarct volume in mice; assay type: in vivo; conditions: mice injected with varying levels of simvastatin and L-arginine; predicted by statistical analysis
[1] = system: endothelium-dependent vasodilation; experiment: Endothelium-dependent vasodilation by brachial artery ultrasound in subjects with elevated ADMA; assay type: in vivo, human; conditions: subjects in whom eNOS is blocked by elevated ADMA levels
eNOS = eNOS function in cultured human aortic endothelial cells (conversion of labeled L-arginine to L-citrulline); assay type: cell-based; conditions: HAEC incubated with 1.0 or 0.3 μM simvastatin for 24 hours; relative to untreated cells
Experimental: Human aortic endothelial cells (HAEC-c) (BioWhittaker, Walkersville, Md.) were cultured according to the following procedure. Endothelial cells in EBM-2/EGM-2 media (BioWhittaker) were grown to about 80% to about 90% confluence. Each flask of cells was washed with 5 ml media followed by the addition of 15 ml media to each cell. Cells were detached with a cell scraper and transferred to a 50 ml conical tube. Cells were pelleted by centrifugation at 800 RMP for 8 min. The supernatant was discarded and the pellet was washed with cold 1× PBS.
The cells were homogenized as follows. The pellet was loosened and 400 μl of 10× homogenization buffer (250 mM Tris at pH 7.4, 10 mM EDTA and 10 mM EGTA) was added. The sample was homogenized using a 27 G needle about 10 times. The homogenate was transferred to a 1.5 ml epindorph tube. The pellet was subsequently resuspended in 30 to 45 μl of 1× homogenization buffer. […]
Following incubation, about 400 μl of stop equilibration buffer (50 mM NaAcetate at pH 5.5) was added to each sample and control. […] Results are calculated, in part, by subtracting background (buffer control) from each sample. The sample values are expressed as counts per minute or as a percent of untreated cells.
Relative eNOS function was measured by the conversion of labeled-L-arginine to L-citrulline and expressed as a percent of citrulline produced by the non-treated cells. […]

Row | Compound | optimal range of the combination (infarct volume) [mg/kg] | effect on endothelial function [1] | level of eNOS function (eNOS)
1 | N=C(N)NCCC[C@H](N)C(=O)O [L-arginine] | 20 to 25 |  | 
2 | CCC(C)(C)C(=O)O[C@H]1C[C@@H](C)C=C2C=C[C@H](C)[C@H](CC[C@@H]3C[C@@H](O)CC(=O)O3)[C@H]21 [simvastatin w/o L-arginine SR, simvastatin] |  | does not enhance | increases
